Data from article PMC9916925, “Copper (II) Species with Improved Anti-Melanoma and Antibacterial Activity by Inclusion in β-Cyclodextrin” (International Journal of Molecular Sciences, 2023).
Converted amounts (≈) assume the structure as drawn. Read-outs that look alike come from different tables or passages of the source.

Key:
L929 fibroblasts [1] = experiment: MTT cellular viability assay, L929 fibroblasts; assay type: cell-based, mouse; details: L929, 24 or 48 h, concentrations up to 25 µg/mL
Method: Mouse fibroblast cell line L929 (CCL-1, ATCC, USA) and mouse melanoma cell B16 (ATCC CRL-6475, USA) were grown in DMEM (Dulbecco’s Modified Eagle Medium) supplemented with 2 mM L-Glutamine, 10% fetal calf serum (FCS), 100 units/mL of penicillin, and 100 µg/mL of streptomycin. They were kept at 37 °C in a humidified incubator under an atmosphere containing 5% CO2. All cell-cultivation media and reagents were purchased from Biochrom AG (Berlin, Germany) and Sigma-Aldrich (Darmstadt, Germany).
To test cellular viability, we used the MTT assay (3-(4,5-dimethylthiazol-2-yl)-2,5-diphenyltetrazolium bromide) colorimetric assay as previously described. Briefly, L929 and B16 cells were seeded in 96-well plates at a density of 5000 cells/well and grown in the culture medium for 24 h. […] The absorbance of the samples was recorded at λ = 570 nm using a plate reader (Mithras 940, Berthold, Bad Wildbad, Germany). The data were corrected for background absorbance, and the viability was calculated using the following formula:% viable cells = [(A570 of treated cells)/(A570 of untreated cells)] × 100 (%)
Half-maximal inhibitory concentration (IC50) was determined by fitting the data with a sigmoidal logistic function using Origin 8.1 (Microcal Inc., Northampton, MA, USA) software.

L929 cells = experiment: Cell cycle analysis by flow cytometry, L929; assay type: cell-based, mouse; details: L929, 24 h, 1.56 and/or 6.25 µg/mL
Method: (§1) A flow cytometry analysis was used to check the possible influence of the tested compounds on the cell cycle of both cellular lines L929 and B16. Before treatment, 25,000 cells per well were seeded in 24-well plates and treated with 2 concentrations of the compounds (1.56 and 6.25 µg/mL) for 24 h. After treatment, cells were detached, washed with cold PBS, and then resuspended in cold PBS mixed with 100% ethanol and kept at −20 °C for at least 24 h for fixation. The following day, the cells were stained using a 0.1% Triton-X in PBS containing 0.2 mg/mL RNAase and 20 µg/mL propidium iodide. The samples were incubated for 30 min at 37 °C in the dark. After incubation with the staining solution, the cells were washed with PBS and resuspended in 100 µL PBS. The cell cycle measurement was made using CytoFLEX (Beckman Coulter, Brea, CA, USA) by recording 30,000 events/sample. All experiments were made in triplicate, each having at least 2 wells per condition. The data was evaluated using the CytoFLEX software.

B16 cells = experiment: Cell cycle analysis by flow cytometry, B16; assay type: cell-based, mouse; details: B16, 24 h, irrespective of the tested concentration (1.56 and/or 6.25 µg/mL)
Method: as §1

[2] = tested on: Escherichia coli ATCC 25922; experiment: Microdilution MIC assay, planktonic E. coli; assay type: cell-based; details: this paper
Method: (§2) The antibacterial activity of the inclusion complexes was evaluated on the Gram-negative Escherichia coli ATCC 25922 and Gram-positive Staphylococcus aureus ATCC 25923 reference bacterial strains. The antibacterial activity of the β-CD, precursor complexes, and inclusion complexes was evaluated against planktonic and biofilm-embedded cells to obtain the minimum inhibitory (MIC) and minimum biofilm eradication (MBEC) concentrations, respectively. The antibacterial activity assays were carried out on the Gram-negative E. coli ATCC 25922 and the Gram-positive S. aureus ATCC 25923 reference strains. The antimicrobial activity of the β-CD inclusion complexes versus the β-CD and Cu(II) complexes against planktonic bacterial cells was assessed using the microdilution assay, allowing MIC determination. Anti-biofilm activity was evaluated using the crystal-violet microtiter to determine the MBEC [25]. All experiments were performed in triplicate. In both assays, serial binary concentrations ranging from 8.81 to 0.013 mM were used.

[3] = tested on: Staphylococcus aureus ATCC 25923; experiment: Microdilution MIC assay, planktonic S. aureus; assay type: cell-based; details: S. aureus 25923, planktonic cells, this paper
Method: as §2

[4] = assay type: physicochemical
From the text: Compound (1) follows a linear profile described in the literature as an AL type, according to Higuchi and Connors. This behavior corresponds to a molar ratio of 1:1 between (1a) and β-CD, similar to that obtained using Job’s method. […] This value confirms that the equilibrium between (1) and β-CD shifts to the product, indicating a high tendency of (1) to enter the cavity of β-CD together with good stability of the (1a)@β-CD complex. […] Higuchi described this model as being AP, meaning a positive deviation from the linearity, corresponding to a 1:2 molar ratio between (2) and β-CD, in very good agreement with results obtained by Job’s method. This type of stoichiometry literature indicates a possibility of evaluating the stability constant starting from the equation of a quadratic model. Even if this is not a perfect model and the value calculated is affected by an error ~30%, reliable information about the stability of the (2a)@β -CD complex could be obtained. The model ensures the calculation of K1:1 and K1:2. The obtained values were 20.44 and 6 M^–1.
The method settled for phase-solubility studies was adapted from a previous paper. First, calibration curves for (1) and (2) were obtained. For this purpose, successive dilutions from the stock solution were performed, spectra were recorded and absorbance reeded 312 nm (1) and 272 nm (2). The plot of absorbance versus concentration gives two straight lines for both (1) and (2) complexes: y = 0.5111x − 0.0323 (R^2 = 0.9996) and y = 18.792x − 0.0323 (R^2 = 0.9996), respectively. Second, water and β-CD 20 mM were added to six samples containing an excess of complex (50 mg) that had the same volume but increasing β-CD concentration. In all experiments, the final volume was 5 mL. The samples were shaken for 1 h, filtered using 0.25 µm PTFE, and the solution was diluted to 1:25 mL before the spectra were recorded. The concentration of the complex in each solution was calculated using a calibration curve described above. In the end, the phase solubility diagrams were obtained by plotting the concentration of the complex versus the concentration of β-CD. The stability constants were calculated from the phase-solubility diagram as follows: (i) Kc = slope/[So × (1 − slope)], where So is the complex’s solubility in the absence of β-CD, for a 1:1 mole ratio, and (ii) STotal = S0 + K1:1[β-CD] + K1:1K1:2[β-CD]^2, where K1:1 and K1:2 are constants for 1:1 and 1:2 host–guest complexes and STotal is the total solubility of complex, for a 1:2 stoichiometry.

biofilm-embedded cells = experiment: Crystal-violet microtiter anti-biofilm assay (MBEC); assay type: cell-based
Method: as §2

B16 melanoma cells = tested on: B16 melanoma cells; set-up: method as in PMID 34833864; details: ref [25], cited from earlier work
[5] = tested on: Escherichia coli ATCC 25922; set-up: method as in PMID 34833864; details: E. coli, planktonic cells; ref [25]; cited from earlier work
[6] = tested on: Staphylococcus aureus ATCC 25923; set-up: method as in PMID 34833864; details: S. aureus 25923, planktonic cells; ref [25]; cited from earlier work
L929 fibroblasts [7] = tested on: L929 fibroblasts; set-up: method as in PMID 34833864; details: L929, time not stated; ref [25]; cited from earlier work
[8] = set-up: method as in PMID 34833864; details: ref [25]; cited from earlier work

OC[C@H]1O[C@@H]2O[C@H]3[C@H](O)[C@@H](O)[C@@H](O[C@H]4[C@H](O)[C@@H](O)[C@@H](O[C@H]5[C@H](O)[C@@H](O)[C@@H](O[C@H]6[C@H](O)[C@@H](O)[C@@H](O[C@H]7[C@H](O)[C@@H](O)[C@@H](O[C@H]8[C@H](O)[C@@H](O)[C@@H](O[C@H]1[C@H](O)[C@H]2O)O[C@@H]8CO)O[C@@H]7CO)O[C@@H]6CO)O[C@@H]5CO)O[C@@H]4CO)O[C@@H]3CO [β-CD, β-cyclodextrin]
effect on viability of normal fibroblast cells (L929 fibroblasts [1]): did not affect the viability | change of number of cells in either cell cycle phase (L929 cells): did not significantly alter | change of number of cells in cell cycle phases (B16 cells): did not significantly alter | MIC ([2]; Escherichia coli, ATCC25922, planktonic cells, read-out: MIC): 8.81 mM (≈ 10000 µg/mL) | MIC ([2]; planktonic cells): no activity | MIC [3]: no activity | MIC ([3]; Staphylococcus aureus, ATCC25923, read-out: MIC): 8.81 mM (≈ 10000 µg/mL)

[Cu(bipy)(dmtp)2(OH2)](ClO4)2@β-CD [(1a)@β-CD]
Kc (stability constant, 1:1) [4]: 250 M^–1

[Cu(bipy)(dmtp)2(OH2)](ClO4)2·dmtp [(1)]
antibiofilm activity (biofilm-embedded cells): exhibit antibiofilm activity | solubilization in water in the presence of β-CD [4]: solubilized in water | IC50 against B16 cells (B16 melanoma cells; B16, previous study): no IC50 could be calculated | MIC [5]: 0.71 mM | MIC [6]: 0.18 mM

[Cu(phen)(dmtp)2(OH2)](ClO4)2@β-CD [(2a)@β-CD]
K1:1 (stability constant) [4]: 20.44 M^–1 | K1:2 (stability constant) [4]: 6 M^–1

[Cu(phen)(dmtp)2(OH2)](ClO4)2·dmtp [(2)]
antibiofilm activity (biofilm-embedded cells): exhibit antibiofilm activity | solubilization in water in the presence of β-CD [4]: solubilized in water | IC50 (L929 fibroblasts [7]): 15 µM | IC50 L929 (L929 fibroblasts [7]): 13.61 µg/mL | IC50 against B16 cells 24 h (B16 melanoma cells; B16, 24 h): 6.88 µg/mL | IC50 (B16 melanoma cells; B16, 24 h, read-out: IC50 against B16 cells 24 h): 7.6 µM | IC50 against B16 cells 48 h (B16 melanoma cells; B16, 48 h): 4.15 µg/mL | IC50 (B16 melanoma cells; B16, 48 h, read-out: IC50 against B16 cells 48 h): 4.58 µM | MIC [5]: 0.34 mM | MIC [6]: 0.04 mM | scavenging of OH· radicals [8]: not observed
